{"source": "ChEMBL document CHEMBL5523715", "about": "“Inhibitory interactions of the 2,3-dihydro-6,7-dihydroxy-1H-isoindol-1-one scaffold with Bunyavirales cap-snatching endonucleases expose relevant drug design features” (Eur J Med Chem, 2024)", "key": {"[1]": {"test_system": "Mammarenavirus choriomeningitidis", "test": "Thermal stabilization of LCMV cap-ENDO assessed as increase in melting temperature at 25 uM in presence of MnCl2 by Sypro Orange dye based assay"}, "[2]": {"target": "RNA-directed RNA polymerase L (Bunyavirus La Crosse) (UniProt A5HC98)", "conditions": "La Crosse virus; dose 25.0 µM"}, "[3]": {"target": "RNA-directed RNA polymerase L (Andes orthohantavirus, UniProt Q9E005)", "sequence (Q9E005 whole entry)": "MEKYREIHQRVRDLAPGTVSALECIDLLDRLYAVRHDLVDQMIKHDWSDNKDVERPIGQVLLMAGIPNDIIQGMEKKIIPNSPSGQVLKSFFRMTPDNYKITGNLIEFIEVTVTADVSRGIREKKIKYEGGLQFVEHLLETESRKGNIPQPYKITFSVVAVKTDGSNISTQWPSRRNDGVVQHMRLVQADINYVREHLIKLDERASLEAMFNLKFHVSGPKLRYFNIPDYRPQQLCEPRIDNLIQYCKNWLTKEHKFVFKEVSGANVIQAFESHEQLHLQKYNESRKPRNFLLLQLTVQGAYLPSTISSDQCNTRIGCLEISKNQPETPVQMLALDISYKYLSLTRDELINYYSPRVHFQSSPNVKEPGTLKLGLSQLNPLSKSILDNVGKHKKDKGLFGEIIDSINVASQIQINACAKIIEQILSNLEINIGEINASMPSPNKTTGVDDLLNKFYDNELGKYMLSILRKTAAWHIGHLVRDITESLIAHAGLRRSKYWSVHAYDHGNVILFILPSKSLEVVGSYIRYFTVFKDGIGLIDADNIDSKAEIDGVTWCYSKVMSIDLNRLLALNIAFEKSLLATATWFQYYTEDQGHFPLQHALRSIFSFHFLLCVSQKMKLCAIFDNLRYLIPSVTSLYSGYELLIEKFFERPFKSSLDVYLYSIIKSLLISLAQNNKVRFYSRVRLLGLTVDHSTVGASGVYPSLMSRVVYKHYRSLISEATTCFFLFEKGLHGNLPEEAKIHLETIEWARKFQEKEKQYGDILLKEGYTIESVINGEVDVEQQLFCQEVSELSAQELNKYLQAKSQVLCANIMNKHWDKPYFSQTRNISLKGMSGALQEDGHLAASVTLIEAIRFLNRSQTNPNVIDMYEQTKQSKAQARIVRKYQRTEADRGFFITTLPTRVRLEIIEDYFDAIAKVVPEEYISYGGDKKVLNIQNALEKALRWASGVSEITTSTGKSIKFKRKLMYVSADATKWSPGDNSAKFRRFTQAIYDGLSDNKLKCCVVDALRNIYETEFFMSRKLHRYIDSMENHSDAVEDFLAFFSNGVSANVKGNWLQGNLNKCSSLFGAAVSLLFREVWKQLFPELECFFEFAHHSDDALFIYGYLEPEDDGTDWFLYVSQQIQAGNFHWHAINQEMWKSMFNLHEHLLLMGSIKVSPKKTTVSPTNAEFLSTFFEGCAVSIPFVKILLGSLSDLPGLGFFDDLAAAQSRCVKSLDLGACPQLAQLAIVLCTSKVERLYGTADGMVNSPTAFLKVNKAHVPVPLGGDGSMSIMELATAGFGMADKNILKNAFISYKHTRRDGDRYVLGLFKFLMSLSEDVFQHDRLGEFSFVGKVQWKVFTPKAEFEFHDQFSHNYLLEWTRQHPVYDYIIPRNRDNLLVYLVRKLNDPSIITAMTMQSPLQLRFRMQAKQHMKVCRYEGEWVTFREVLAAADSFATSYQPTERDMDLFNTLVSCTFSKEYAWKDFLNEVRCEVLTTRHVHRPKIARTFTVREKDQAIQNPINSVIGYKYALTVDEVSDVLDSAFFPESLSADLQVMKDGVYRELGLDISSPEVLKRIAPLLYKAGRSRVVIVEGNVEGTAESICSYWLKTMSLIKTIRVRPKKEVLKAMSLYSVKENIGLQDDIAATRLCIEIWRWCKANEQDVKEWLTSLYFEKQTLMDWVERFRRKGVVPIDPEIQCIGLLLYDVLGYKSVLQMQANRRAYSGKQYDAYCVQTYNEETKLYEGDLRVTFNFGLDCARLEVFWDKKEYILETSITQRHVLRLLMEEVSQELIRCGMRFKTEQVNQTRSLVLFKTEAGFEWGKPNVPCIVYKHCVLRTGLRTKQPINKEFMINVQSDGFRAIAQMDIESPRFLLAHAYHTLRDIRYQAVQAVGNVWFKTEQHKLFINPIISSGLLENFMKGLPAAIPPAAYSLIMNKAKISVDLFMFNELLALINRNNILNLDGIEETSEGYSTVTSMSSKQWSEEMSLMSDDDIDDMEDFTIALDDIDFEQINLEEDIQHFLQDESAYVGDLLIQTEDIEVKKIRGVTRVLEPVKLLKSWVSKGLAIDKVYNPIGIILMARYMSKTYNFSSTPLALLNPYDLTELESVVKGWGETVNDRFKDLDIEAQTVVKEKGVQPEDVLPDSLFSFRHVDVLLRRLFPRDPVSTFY", "parameters": "species or system Orthohantavirus andesense"}, "Mammarenavirus lassaense": {"test_system": "Mammarenavirus lassaense", "test": "Thermal stabilization of LASV cap-ENDO assessed as increase in melting temperature at 25 uM in presence of MnCl2 by Sypro Orange dye based assay"}, "Pichinde virus": {"test_system": "Pichinde virus", "test": "Thermal stabilization of PICV cap-ENDO assessed as increase in melting temperature at 25 uM in presence of MnCl2 by Sypro Orange dye based assay"}, "[4]": {"target": "T1, RNA-directed RNA polymerase L (Toscana virus, UniProt P37800)"}, "[5]": {"target": "RNA-directed RNA polymerase L (Toscana virus) (UniProt P37800)", "conditions": "dose 25.0 µM"}, "[6]": {"target": "RNA-directed RNA polymerase L (Andes orthohantavirus) (UniProt Q9E005)", "sequence (Q9E005 whole entry)": "as above", "conditions": "Orthohantavirus andesense; dose 25.0 µM"}, "[7]": {"target": "RNA-directed RNA polymerase L (Bunyavirus La Crosse, UniProt A5HC98)", "parameters": "species or system La Crosse virus"}, "[8]": {"test": "Metal chelating activity assessed as compound-Mg(II) complex formation by measuring apparent formation constant (K) by UV-Vis spectrophotometric analysis", "format": "functional"}, "[9]": {"test": "Metal chelating activity assessed as compound-Mn(II) complex formation by measuring apparent formation constant (K) by UV-Vis spectrophotometric analysis", "format": "functional"}, "[10]": {"target": "RNA-directed RNA polymerase L (Toscana virus) (UniProt P37800)"}, "[11]": {"target": "RNA-directed RNA polymerase L (Toscana virus) (UniProt P37800)", "remark": "listed apart in the source"}, "[12]": {"target": "RNA-directed RNA polymerase L (Toscana virus) (UniProt P37800)", "remark": "listed apart in the source"}, "[13]": {"target": "T1, RNA-directed RNA polymerase L", "remark": "listed apart in the source"}}, "note": "The source made the active and inactive calls. The calls are words filed in the database; no cut-off is given here."}
{"smiles": "O=C1c2c(ccc(O)c2O)CN1Cc1ccc([N+](=O)[O-])cc1", "values": [{"measurement": "Activity", "setting": "[1]", "value": "Active"}, {"measurement": "Activity", "setting": "[2]", "value": "Active"}, {"measurement": "IC50", "setting": "[3]", "value": 3.7, "unit": "µM"}, {"measurement": "Activity", "setting": "Mammarenavirus lassaense", "value": "Active"}, {"measurement": "Activity", "setting": "Pichinde virus", "value": "Active"}, {"measurement": "IC50", "setting": "[4]", "value": 4.7, "unit": "µM"}, {"measurement": "Activity", "setting": "[5]", "value": "Active"}, {"measurement": "Activity", "setting": "[6]", "value": "Active"}, {"measurement": "IC50", "setting": "[7]", "value": 8, "unit": "µM"}]}
{"smiles": "O=C1c2c(ccc(O)c2O)CN1Cc1ccccc1", "values": [{"measurement": "Activity", "setting": "[1]", "value": "inactive"}, {"measurement": "Activity", "setting": "[2]", "value": "inactive"}, {"measurement": "IC50", "setting": "[3]", "value": 1.1, "unit": "µM"}, {"measurement": "Activity", "setting": "Mammarenavirus lassaense", "value": "inactive"}, {"measurement": "Activity", "setting": "Pichinde virus", "value": "inactive"}, {"measurement": "IC50", "setting": "[4]", "value": 3.3, "unit": "µM"}, {"measurement": "Activity", "setting": "[5]", "value": "inactive"}, {"measurement": "Activity", "setting": "[6]", "value": "inactive"}, {"measurement": "IC50", "setting": "[7]", "value": 9, "unit": "µM"}]}
{"smiles": "Cc1ccc(CN2Cc3ccc(O)c(O)c3C2=O)cc1", "values": [{"measurement": "Activity", "setting": "[1]", "value": "Active"}, {"measurement": "Activity", "setting": "[2]", "value": "Active"}, {"measurement": "IC50", "setting": "[3]", "value": 6.4, "unit": "µM"}, {"measurement": "Activity", "setting": "Mammarenavirus lassaense", "value": "Active"}, {"measurement": "Activity", "setting": "Pichinde virus", "value": "Active"}, {"measurement": "IC50", "setting": "[4]", "value": 1.5, "unit": "µM"}, {"measurement": "Activity", "setting": "[5]", "value": "Active"}, {"measurement": "Activity", "setting": "[6]", "value": "Active"}, {"measurement": "IC50", "setting": "[7]", "value": 3.4, "unit": "µM"}]}
{"smiles": "O=C1c2c(ccc(O)c2O)CN1Cc1ccc(O)cc1", "values": [{"measurement": "Activity", "setting": "[1]", "value": "Active"}, {"measurement": "Activity", "setting": "[2]", "value": "Active"}, {"measurement": "IC50", "setting": "[3]", "value": 1.6, "unit": "µM"}, {"measurement": "Activity", "setting": "Mammarenavirus lassaense", "value": "Active"}, {"measurement": "Activity", "setting": "Pichinde virus", "value": "Active"}, {"measurement": "IC50", "setting": "[4]", "value": 3.6, "unit": "µM"}, {"measurement": "Activity", "setting": "[5]", "value": "Active"}, {"measurement": "log(activity)", "setting": "[8]", "value": 2.31}, {"measurement": "Activity", "setting": "[6]", "value": "Active"}, {"measurement": "IC50", "setting": "[7]", "value": 0.7, "unit": "µM"}, {"measurement": "log(activity)", "setting": "[9]", "value": 3.37}]}
{"smiles": "O=C1c2c(ccc(O)c2O)CN1Cc1cc(O)c(O)c(O)c1", "values": [{"measurement": "Activity", "setting": "[1]", "value": "Active"}, {"measurement": "Activity", "setting": "[2]", "value": "Active"}, {"measurement": "IC50", "setting": "[3]", "value": 1.5, "unit": "µM"}, {"measurement": "Activity", "setting": "Mammarenavirus lassaense", "value": "Active"}, {"measurement": "Activity", "setting": "Pichinde virus", "value": "Active"}, {"measurement": "IC50", "setting": "[4]", "value": 0.9, "unit": "µM"}, {"measurement": "Activity", "setting": "[5]", "value": "Active"}, {"measurement": "Activity", "setting": "[6]", "value": "Active"}, {"measurement": "IC50", "setting": "[7]", "value": 1.1, "unit": "µM"}]}
{"smiles": "O=C1c2c(ccc(O)c2O)CN1Cc1ccc(Cl)c(C(F)(F)F)c1", "values": [{"measurement": "Activity", "setting": "[1]", "value": "Active"}, {"measurement": "Activity", "setting": "[2]", "value": "Active"}, {"measurement": "IC50", "setting": "[3]", "value": 1.3, "unit": "µM"}, {"measurement": "Activity", "setting": "Mammarenavirus lassaense", "value": "Active"}, {"measurement": "Activity", "setting": "Pichinde virus", "value": "Active"}, {"measurement": "IC50", "setting": "[4]", "value": 7.3, "unit": "µM"}, {"measurement": "Activity", "setting": "[5]", "value": "Active"}, {"measurement": "Activity", "setting": "[6]", "value": "Active"}, {"measurement": "IC50", "setting": "[7]", "value": 29.2, "unit": "µM"}]}
{"smiles": "O=C1c2c(ccc(O)c2O)CN1Cc1ccc(F)c(Cl)c1", "values": [{"measurement": "Activity", "setting": "[1]", "value": "inactive"}, {"measurement": "Activity", "setting": "[2]", "value": "inactive"}, {"measurement": "IC50", "setting": "[3]", "value": 7.6, "unit": "µM"}, {"measurement": "Activity", "setting": "Mammarenavirus lassaense", "value": "inactive"}, {"measurement": "Activity", "setting": "Pichinde virus", "value": "inactive"}, {"measurement": "IC50", "setting": "[4]", "value": 13.4, "unit": "µM"}, {"measurement": "Activity", "setting": "[5]", "value": "inactive"}, {"measurement": "Activity", "setting": "[6]", "value": "inactive"}, {"measurement": "IC50", "setting": "[7]", "value": 4.8, "unit": "µM"}]}
{"smiles": "O=C1c2c(ccc(O)c2O)CN1Cc1ccc(F)cc1", "values": [{"measurement": "Activity", "setting": "[1]", "value": "Active"}, {"measurement": "Activity", "setting": "[2]", "value": "Active"}, {"measurement": "IC50", "setting": "[3]", "value": 1.7, "unit": "µM"}, {"measurement": "Activity", "setting": "Mammarenavirus lassaense", "value": "Active"}, {"measurement": "Activity", "setting": "Pichinde virus", "value": "Active"}, {"measurement": "IC50", "setting": "[4]", "value": 5.7, "unit": "µM"}, {"measurement": "Activity", "setting": "[5]", "value": "Active"}, {"measurement": "Activity", "setting": "[6]", "value": "Active"}, {"measurement": "IC50", "setting": "[7]", "value": 4, "unit": "µM"}]}
{"smiles": "O=C1c2c(ccc(O)c2O)CN1CCc1ccc(O)cc1", "values": [{"measurement": "Activity", "setting": "[1]", "value": "Active"}, {"measurement": "Activity", "setting": "[2]", "value": "Active"}, {"measurement": "IC50", "setting": "[3]", "value": 1, "unit": "µM"}, {"measurement": "Activity", "setting": "Mammarenavirus lassaense", "value": "Active"}, {"measurement": "Activity", "setting": "Pichinde virus", "value": "Active"}, {"measurement": "IC50", "setting": "[4]", "value": 2.8, "unit": "µM"}, {"measurement": "Activity", "setting": "[5]", "value": "Active"}, {"measurement": "Activity", "setting": "[6]", "value": "Active"}, {"measurement": "IC50", "setting": "[7]", "value": 6.1, "unit": "µM"}]}
{"smiles": "O=C1c2c(ccc(O)c2O)CN1Cc1ccc2ccccc2c1", "values": [{"measurement": "Activity", "setting": "[1]", "value": "Active"}, {"measurement": "Activity", "setting": "[2]", "value": "Active"}, {"measurement": "IC50", "setting": "[3]", "value": 1.9, "unit": "µM"}, {"measurement": "Activity", "setting": "Mammarenavirus lassaense", "value": "Active"}, {"measurement": "Activity", "setting": "Pichinde virus", "value": "Active"}, {"measurement": "IC50", "setting": "[4]", "value": 5.8, "unit": "µM"}, {"measurement": "Activity", "setting": "[5]", "value": "Active"}, {"measurement": "Activity", "setting": "[6]", "value": "Active"}, {"measurement": "IC50", "setting": "[7]", "value": 3.9, "unit": "µM"}]}
{"smiles": "O=C1c2c(ccc(O)c2O)CN1Cc1cccc2ccccc12", "values": [{"measurement": "Activity", "setting": "[1]", "value": "Active"}, {"measurement": "Activity", "setting": "[2]", "value": "Active"}, {"measurement": "IC50", "setting": "[3]", "value": 3.8, "unit": "µM"}, {"measurement": "Activity", "setting": "Mammarenavirus lassaense", "value": "Active"}, {"measurement": "Activity", "setting": "Pichinde virus", "value": "Active"}, {"measurement": "IC50", "setting": "[4]", "value": 7.8, "unit": "µM"}, {"measurement": "Activity", "setting": "[5]", "value": "Active"}, {"measurement": "Activity", "setting": "[6]", "value": "Active"}, {"measurement": "IC50", "setting": "[7]", "value": 11.2, "unit": "µM"}]}
{"smiles": "O=C1c2c(ccc(O)c2O)CN1Cc1ccc(O)c(O)c1", "values": [{"measurement": "ΔTm", "setting": "[1]", "value": "< 1", "unit": "°C"}, {"measurement": "ΔTm", "setting": "[2]", "value": "> 1", "unit": "°C"}, {"measurement": "IC50", "setting": "[3]", "value": 0.5, "unit": "µM"}, {"measurement": "ΔTm", "setting": "Mammarenavirus lassaense", "value": "< 1", "unit": "°C"}, {"measurement": "ΔTm", "setting": "Pichinde virus", "value": "< 1", "unit": "°C"}, {"measurement": "IC50", "setting": "[4]", "value": 2.4, "unit": "µM"}, {"measurement": "deltaH", "setting": "[10]", "value": -7.97, "unit": "kcal/mol"}, {"measurement": "-TdeltaS", "setting": "[11]", "value": 1.76, "unit": "kcal/mol"}, {"measurement": "deltaG", "setting": "[12]", "value": -6.22, "unit": "kcal/mol"}, {"measurement": "ΔTm", "setting": "[5]", "value": "> 1", "unit": "°C"}, {"measurement": "ΔTm", "setting": "[6]", "value": "> 1", "unit": "°C"}, {"measurement": "IC50", "setting": "[7]", "value": 4, "unit": "µM"}, {"measurement": "Kd", "setting": "[13]", "value": 28, "unit": "µM"}]}
